14 compounds from patent US8273754B2, “Substituted 1H-pyrazolo[3,4-D]pyrimidine-6-amine compounds” (ArQule, Inc., priority 2008, dated 2012) can be followed below.

For this test, the system named is cancer cells. The experiment in a line: MTS cell growth inhibition assay (72 hours). It counts as cell-based. As for the experimental part:
Cells were maintained at 37° C., 5% CO2 in DMEM media supplemented with 1% fetal bovine serum, penicillin/streptomycin and fungizone (Invitrogen). Cells were seeded into 96-well tissue culture plates at 3000 per well and cultured at 37° C. for 18 hours. Test compounds were dissolved and diluted to 300× in DMSO then further diluted 1:40 in DMEM before addition to cells (1:7.5 dilution). Cells were incubated with test compounds for 72 hours followed by incubation with tetrazolium compound (3-(4,5-dimethylthiazol-2-yl)-5-(3-carboxymethoxyphenyl)-2-(4-sulfophenyl)-2H-tetrazolium, inner salt; MTS) and the electron coupling reagent, phenazine methosulfate (PMS) for 4 hours. […] The ability of compounds to inhibit cell growth in this assay is correlated with the reduction of dehydrogenase enzyme activity found in metabolically active cells. The measurement of the absorbance of the formazan was assessed using an ENVISION™ (Perkin Elmer) microplate reader at 492 nm. The calculated IC50 value is the concentration of the test compound that causes a 50% decrease in the absorbance. […] A=>79% inhibition, B=>50 to 79% inhibition, C=<50% inhibition.

Setting [1] is: Homo sapiens, DLD-1, 72 h, DLD-1 cells, read-out: DLD-1 MTS 72 hr at 10 μM.
The mark [2] stands for this setting: Homo sapiens, KATO III, 72 h, KATO III cells, read-out: KATO III MTS 72 hr at 10 μM.
Setting [3] is: Homo sapiens, MDA-MB-231, 72 h, MDA-MB-231 cells, read-out: MDA-MB-231 MTS 72 hr at 10 μM.
[4] abbreviates: Homo sapiens, NCI-H1299, 72 h, NCI-H1299 cells, read-out: NCI-H1299 MTS 72 hr at 10 μM.
[5] abbreviates: PaCa-2, 72 h, PACA-2 cells, read-out: PACA-2 MTS 72 hr at 10 μM.

Read-outs that look alike come from different tables or passages of the source.

For `Nc1nc(NC2CCN(S(=O)(=O)c3cccc(F)c3)c3ccccc3C2)c2cn[nH]c2n1` (stereo not shown) [Compound 169, N4-{1-[(3-fluorophenyl)sulfonyl]-2,3,4,5-tetrahydro-1H-1-benzazepin-4-yl}-1H-pyrazolo[3,4-d]pyrimidine-4,6-diamine], the inhibition at 10 µM under setting [1] was less than 50%; the inhibition at 10 µM under setting [2] is less than 50%; the inhibition at 10 µM under setting [3] is less than 50%; the inhibition at 10 µM under setting [4] was less than 50%; the inhibition at 10 µM under setting [5] is less than 50%.

`CS(=O)(=O)N1CC(Nc2nc(N)nc3[nH]ncc23)Cc2ccccc21` (stereo not shown) [Compound 29, N4-(1-(methylsulfonyl)-1,2,3,4-tetrahydroquinolin-3-yl)-1H-pyrazolo[3,4-d]pyrimidine-4,6-diamine]: the inhibition at 10 µM reads like this: under setting [1], less than 50%; under setting [2], less than 50%; under setting [3], less than 50%; under setting [4], less than 50%; under setting [5], less than 50%.

Regarding `Nc1nc(NC2Cc3ccccc3N(S(=O)(=O)c3cccc(NC(=O)Nc4cccc(Cl)c4F)c3)C2)c2cn[nH]c2n1` (stereo not shown) [Compound 221, 1-[3-({3-[(6-amino-1H-pyrazolo[3,4-d]pyrimidin-4-yl)amino]-3,4-dihydroquinolin-1(2H)-yl}sulfonyl)phenyl]-3-(3-chloro-2-fluorophenyl)urea], the inhibition at 10 µM by setting is: under setting [1], more than 79%; under setting [2], more than 79%; under setting [3], more than 79%; under setting [4], more than 79%; under setting [5], more than 79%.

Turning to `Nc1nc(NC2Cc3ccccc3N(S(=O)(=O)c3ccc(-c4ccccc4)cc3)C2)c2cn[nH]c2n1` (stereo not shown) [Compound 16, N4-(1-(biphenyl-4-ylsulfonyl)-1,2,3,4-tetrahydroquinolin-3-yl)-1H-pyrazolo[3,4-d]pyrimidine-4,6-diamine], the inhibition at 10 µM runs as follows: under setting [1], 50 to 79%; under setting [2], 50 to 79%; under setting [3], less than 50%; under setting [4], less than 50%; under setting [5], 50 to 79%.

Turning to `Nc1nc(NC2Cc3ccccc3N(Cc3c(F)cccc3Cl)C2)c2cn[nH]c2n1` (stereo not shown) [Compound 140, N4-[1-(2-chloro-6-fluorobenzyl)-1,2,3,4-tetrahydroquinolin-3-yl]-1H-pyrazolo[3,4-d]pyrimidine-4,6-diamine], the inhibition at 10 µM runs as follows: under setting [1], more than 79%; under setting [2], more than 79%; under setting [3], more than 79%; under setting [4], 50 to 79%; under setting [5], more than 79%.

Regarding `COc1cc(CN2CC(Nc3nc(N)nc4[nH]ncc34)Cc3ccccc32)ccc1OCc1ccccc1` (stereo not shown) [Compound 156, N4-{1-[4-(benzyloxy)-3-methoxybenzyl]-1,2,3,4-tetrahydroquinolin-3-yl}-1H-pyrazolo[3,4-d]pyrimidine-4,6-diamine], the inhibition at 10 µM reads like this: under setting [1], 50 to 79%; under setting [2], less than 50%; under setting [3], less than 50%; under setting [4], less than 50%; under setting [5], less than 50%.

Turning to `Nc1nc(NC2Cc3ccccc3N(Cc3ccccc3OCc3c(Cl)cccc3Cl)C2)c2cn[nH]c2n1` (stereo not shown) [Compound 152, N4-(1-{2-[(2,6-dichlorobenzyl)oxy]benzyl}-1,2,3,4-tetrahydroquinolin-3-yl)-1H-pyrazolo[3,4-d]pyrimidine-4,6-diamine], the inhibition at 10 µM runs as follows: under setting [1], more than 79%; under setting [2], 50 to 79%; under setting [3], 50 to 79%; under setting [4], less than 50%; under setting [5], less than 50%.

As for `Nc1nc(NC2Cc3ccccc3N(S(=O)(=O)c3ccc(Br)c(F)c3)C2)c2cn[nH]c2n1` (stereo not shown) [Compound 62, N4-(1-(4-bromo-3-fluorophenylsulfonyl)-1,2,3,4-tetrahydroquinolin-3-yl)-1H-pyrazolo[3,4-d]pyrimidine-4,6-diamine], the inhibition at 10 µM under setting [1] was less than 50%; the inhibition at 10 µM under setting [2] was less than 50%; the inhibition at 10 µM under setting [3] is less than 50%; the inhibition at 10 µM under setting [4] was less than 50%; the inhibition at 10 µM under setting [5] is less than 50%.

With `Nc1nc(NC2Cc3ccccc3N(C(=O)c3cccs3)C2)c2cn[nH]c2n1` (stereo not shown) [Compound 79, (3-(6-amino-1H-pyrazolo[3,4-d]pyrimidin-4-ylamino)-3,4-dihydroquinolin-1(2H)-yl)(thiophen-2-yl)methanone], the inhibition at 10 µM is more than 79% under setting [1]; more than 79% under setting [2]; 50 to 79% under setting [3]; less than 50% under setting [4]; more than 79% under setting [5].

With `CCCCCCc1ccc(C(=O)N2CC(Nc3nc(N)nc4[nH]ncc34)Cc3ccccc32)cc1` (stereo not shown) [Compound 88, (3-(6-amino-1H-pyrazolo[3,4-d]pyrimidin-4-ylamino)-3,4-dihydroquinolin-1(2H)-yl)(4-hexylphenyl)methanone], the inhibition at 10 µM is 50 to 79% under setting [1]; less than 50% under setting [2]; less than 50% under setting [3]; less than 50% under setting [4]; less than 50% under setting [5].

As to `COc1cccc(S(=O)(=O)N2CC(Nc3nc(N)nc4[nH]ncc34)Cc3ccccc32)c1` (stereo not shown) [Compound 24, N4-(1-(3-methoxyphenylsulfonyl)-1,2,3,4-tetrahydroquinolin-3-yl)-1H-pyrazolo[3,4-d]pyrimidine-4,6-diamine], the inhibition at 10 µM under setting [1] was less than 50%; the inhibition at 10 µM under setting [2] was more than 79%; the inhibition at 10 µM under setting [3] is less than 50%; the inhibition at 10 µM under setting [4] is less than 50%; the inhibition at 10 µM under setting [5] was less than 50%.

`Nc1nc(NC2Cc3ccccc3N(S(=O)(=O)c3ccc(NC(=O)Nc4cc(F)cc(C(F)(F)F)c4)cc3)C2)c2cn[nH]c2n1` (stereo not shown) [Compound 197, 1-[4-({3-[(6-amino-1H-pyrazolo[3,4-d]pyrimidin-4-yl)amino]-3,4-dihydroquinolin-1(2H)-yl}sulfonyl)phenyl]-3-[3-fluoro-5-(trifluoromethyl)phenyl]urea]: the inhibition at 10 µM was more than 79% under setting [1]; more than 79% under setting [2]; more than 79% under setting [3]; more than 79% under setting [4]; more than 79% under setting [5].

With `Nc1nc(NC2CCN(S(=O)(=O)c3ccc(Cl)cc3)c3ccccc3C2)c2cn[nH]c2n1` (stereo not shown) [Compound 171, N4-{1-[(4-chlorophenyl)sulfonyl]-2,3,4,5-tetrahydro-1H-1-benzazepin-4-yl}-1H-pyrazolo[3,4-d]pyrimidine-4,6-diamine], the inhibition at 10 µM was less than 50% under setting [1]; less than 50% under setting [2]; less than 50% under setting [3]; less than 50% under setting [4]; less than 50% under setting [5].

Take `Nc1nc(NC2Cc3ccccc3N(C(=O)c3ccc(F)cc3F)C2)c2cn[nH]c2n1` (stereo not shown) [Compound 86, (3-(6-amino-1H-pyrazolo[3,4-d]pyrimidin-4-ylamino)-3,4-dihydroquinolin-1(2H)-yl)(2,4-difluorophenyl)methanone]: the inhibition at 10 µM is less than 50% under setting [1]; less than 50% under setting [2]; less than 50% under setting [3]; less than 50% under setting [4]; less than 50% under setting [5].
